Measurements taken from patent US9012431B2, “Boron-containing small molecules as anti-inflammatory agents” (Anacor Pharmaceuticals, Inc., priority 2008, dated 2015).

Columns and labels:
[1] = system: IL-2; assay: Cytokine assay, IL-2 release from PBMC; type: cell-based; conditions: human PBMC, 20 ug/mL PHA, supernatant at 24 hours
Procedure: (§1) The ability of the compounds described herein to inhibit pro-inflammatory cytokines or phsophodiesterases were tested.
(§2) Frozen human peripheral blood mononucleocytes (PBMC) were thawed and centrifuged. Cryopreservation media was aspirated off of the cell pellet, and the cells were resuspended in fresh culture media (CM) comprising RPMI 1640 and 10% FBS in 96 well plates. Test article was dissolved in DMSO to form a 10 mM sample (DMSO, 100%). The 10 mM samples were diluted to 100 μM in CM (DMSO, 1%), then further diluted to 10, 1, 0.1, 0.01 μM in 200 μL of CM (n=3). […] IL-23 was assayed using a commercial ELISA kit (R&D Systems).

[2] = system: IFN-γ; assay: Cytokine assay, IFN-γ release from PBMC; type: cell-based; conditions: human PBMC, 20 ug/mL PHA; for IC50: supernatant at 24 hours
Procedure: as §1, §2

[3] = system: TNF-α; assay: Cytokine assay, TNF-α release from PBMC; type: cell-based; conditions: 1 μg/mL LPS, supernatant at 24 hours
Procedure: as §1, §2

[4] = system: IL-10; assay: Cytokine assay, IL-10 release from PBMC; type: cell-based; conditions: human PBMC, 20 ug/mL PHA, supernatant at 48 hours
Procedure: as §1, §2

[5] = system: T1, PDE4 partially purified from human U-937 myeloid leukemia cells; assay: PDE4 Assay (enzyme from U-937 cells, [3H]cAMP); type: biochemical; conditions: PDE4 from U-937 cells, Tris buffer pH 7.5, 20 minutes at 25° C.
T1 construct: PDE4 partially purified from human U-937 myeloid leukemia cells was used
Procedure: Test article and/or vehicle was incubated with 0.2 mg enzyme and 1 mM cAMP containing 0.01 mM [3H]cAMP in Tris buffer pH 7.5 for 20 minutes at 25° C. The reaction was terminated by boiling for 2 minutes and the resulting AMP is converted to adenosine by addition of 10 mg/ml snake venom nucleotidase and further incubation at 37° C. for 10 minutes. Unhydrolyzed cAMP is bound to AG1-X2 resin, and remaining [3H]Adenosine in the aqueous phase is quantitated by scintillation counting.

[6] = system: IL-5; assay: Cytokine assay, IL-5 release from PBMC; type: cell-based; conditions: human PBMC, 20 ug/mL PHA, supernatant at 48 hours
Procedure: as §1, §2

| Structure (SMILES) | IC50 [1] | IC50 [2] | IC50 ([3]; Homo sapiens, PBMC, 24 h) | IC50 [4] | IC50 [5] | IC50 [6] | inhibition at 10 µM ([2]; 24 hours, 10 μM) | IC50 ([3]; human PBMC) |
| --- | --- | --- | --- | --- | --- | --- | --- | --- |
| CC(C)OC(=O)c1ccc(Oc2ccc3c(c2)COB3O)c(F)c1 [D55, 5-(2-Fluoro-4-isopropyloxycarbonylphenoxy)-1-hydroxy-2,1-benzoxaborole] | < 1000 nM | < 1000 nM | 4000 to 10000 nM | 4000 to 10000 nM | < 1000 nM | 1000 to 4000 nM |  |  |
| COc1ccc(Oc2ccc3c(c2)COB3O)cc1OC [D94, 5-(3,4-dimethoxyphenoxy)benzo[c][1,2]oxaborol-1 (3H)-ol] | 1000 to 4000 nM | 1000 to 4000 nM | 1000 to 4000 nM | > 10000 nM | < 1000 nM | 1000 to 4000 nM |  |  |
| O=C(NCc1ccccn1)c1ccc(Oc2ccc3c(c2)COB3O)cc1 [D78, 4-(1-Hydroxy-1,3-dihydro-benzo[c][1,2]oxaborol-5-yloxy)-N-pyridin-2-ylmethyl-benzamide] | 1000 to 4000 nM | 1000 to 4000 nM | 1000 to 4000 nM | 1000 to 4000 nM | < 1000 nM | 1000 to 4000 nM |  |  |
| N#Cc1ccc(Oc2ccc3c(c2)COB3O)c(CNC=O)c1 [D25, 5-[4-Cyano-2-(formylaminomethyl)phenoxy]-1,3-dihydro-1-hydroxy-2,1-benzoxaborole] | < 1000 nM | 1000 to 4000 nM | 4000 to 10000 nM | 1000 to 4000 nM | < 1000 nM | < 1000 nM |  |  |
| CC(C)OC(=O)c1ccc(Oc2ccc3c(c2)COB3O)cc1 [D74, 4-(1-Hydroxy-1,3-dihydro-benzo[c][1,2]oxaborol-5-yloxy)-benzoic acid isopropyl ester] | < 1000 nM | < 1000 nM | 1000 to 4000 nM | 1000 to 4000 nM | < 1000 nM | 1000 to 4000 nM |  |  |
| COc1ccc(C#N)c(Oc2ccc3c(c2)COB3O)n1 [D47, 2-(1-Hydroxy-1,3-dihydro-benzo[c][1,2]oxaborol-5-yloxy)-6-methoxy-nicotinonitrile] | < 1000 nM | < 1000 nM | < 1000 nM | 1000 to 4000 nM | < 1000 nM | < 1000 nM |  |  |
| N#Cc1ccc(Oc2ccc3c(c2)COB3O)cc1Cl [D2, 5-(3-Chloro-4-cyanophenoxy)-1-hydroxy-2,1-benzoxaborole] | < 1000 nM | < 1000 nM | < 1000 nM | > 10000 nM | < 1000 nM | < 1000 nM |  |  |
| N#Cc1cnc(Oc2ccc3c(c2)COB3O)c(O)c1 [D123, 5-Hydroxy-6-(1-hydroxy-1,3-dihydro-benzo[c][1,2]oxaborol-5-yloxy)-nicotinonitrile] | < 1000 nM | < 1000 nM | < 1000 nM | 1000 to 4000 nM | < 1000 nM | 1000 to 4000 nM |  |  |
| O=C(O)c1ccc(Oc2ccc3c(c2)COB3O)cc1 [C38, 4-(1-hydroxy-1,3-dihydro-benzo[c][1,2]oxaborol-5-yloxy)-benzoic acid] | > 10000 nM | > 10000 nM | > 10000 nM | > 10000 nM | 4000 to 10000 nM | > 10000 nM |  |  |
| CCCOC(=O)c1ccc(Oc2ccc3c(c2)COB3O)nc1 [D66, n-Propyl 6-(1-hydroxy-1,3-dihydrobenzo[c][1,2]oxaborol-5-yloxy)nicotinate] | < 1000 nM | < 1000 nM | < 1000 nM | < 1000 nM | < 1000 nM | < 1000 nM |  |  |
| COc1ccc(Oc2ccc3c(c2)B(O)OC3)cc1 [C31, 6-(4-Methoxyphenoxy)-1,3-dihydro-1-hydroxy-2,1-benzoxaborole] | > 10000 nM |  | > 10000 nM | > 10000 nM | 4000 to 10000 nM | > 10000 nM | 30 to 60% |  |
| N#Cc1c(Cl)cccc1Oc1ccc2c(c1)COB2O [D13, 5-(3-Chloro-2-cyanophenoxy)-1,3-dihydro-1-hydroxy-2,1-benzoxaborole] | 1000 to 4000 nM | 1000 to 4000 nM | 4000 to 10000 nM | 1000 to 4000 nM | 1000 to 4000 nM | 1000 to 4000 nM |  |  |
| CN(CCO)c1nc(Oc2ccc3c(c2)COB3O)ccc1C#N [D115, 6-(1-Hydroxy-1,3-dihydro-benzo[c][1,2]oxaborol-5-yloxy)-2-[(2-hydroxy-ethyl)-methyl-amino]-nicotinonitrile] | < 1000 nM | < 1000 nM | < 1000 nM | 4000 to 10000 nM | < 1000 nM | < 1000 nM |  |  |
| COc1nc(Oc2ccc3c(c2)COB3O)ncc1C#N [D116, 2-(1-Hydroxy-1,3-dihydro-benzo[c][1,2]oxaborol-5-yloxy)-4-methoxy-pyrimidine-5-carbonitrile] | < 1000 nM | < 1000 nM | < 1000 nM | 1000 to 4000 nM | < 1000 nM | < 1000 nM |  |  |
| N#Cc1ccc(Oc2ccc3c(c2)COB3O)cc1OCC(=O)N1CCOCC1 [D41, 4-(1-Hydroxy-1,3-dihydro-benzo[c][1,2]oxaborol-5-yloxy)-2-(2-morpholin-4-yl-2-oxo-ethoxy)-benzonitrile] | < 1000 nM | < 1000 nM | 1000 to 4000 nM | 1000 to 4000 nM | < 1000 nM | 1000 to 4000 nM |  |  |
| N#Cc1cnc(Oc2ccc3c(c2)COB3O)cc1OCCO [D119, 6-(1-Hydroxy-1,3-dihydro-benzo[c][1,2]oxaborol-5-yloxy)-4-(2-hydroxy-ethoxy)-nicotinonitrile] | < 1000 nM | < 1000 nM | < 1000 nM | < 1000 nM | < 1000 nM | < 1000 nM |  |  |
| Cc1cc(Oc2ccc3c(c2)COB3O)ccc1C#N [D3, 5-(4-Cyano-3-methylphenoxy)-1,3-dihydro-1-hydroxy-2,1-benzoxaborole] | < 1000 nM | < 1000 nM | < 1000 nM | > 10000 nM | < 1000 nM | < 1000 nM |  |  |
| CCCOc1nc(Oc2ccc3c(c2)COB3O)ccc1C#N [D131, 6-(1-Hydroxy-1,3-dihydro-benzo[c][1,2]oxaborol-5-yloxy)-2-propoxy-nicotinonitrile] | < 1000 nM | < 1000 nM | < 1000 nM | < 1000 nM | < 1000 nM | < 1000 nM |  |  |
| N#Cc1ccc(Oc2ccc3c(c2)B(O)OC3)cc1 [C18, 6-(4-Cyanophenoxy)-1,3-dihydro-1-hydroxy-2,1-benzoxaborole] | > 10000 nM | > 10000 nM | > 10000 nM | > 10000 nM | > 10000 nM | > 10000 nM |  |  |
| N#Cc1ccc(Oc2ccc3c(c2)COB3O)nc1 [D82, 6-(1-hydroxy-1,3-dihydrobenzo[c][1,2]oxaborol-5-yloxy)nicotinonitrile] | < 1000 nM | < 1000 nM |  | < 1000 nM | < 1000 nM | 1000 to 4000 nM |  | < 1000 nM |
| CCOC(=O)c1cc(F)c(Oc2ccc3c(c2)COB3O)c(F)c1 [D56, 5-(2,6-Difluoro-4-ethoxycarbonylphenoxy)-1-hydroxy-2,1-benzoxaborole] | 4000 to 10000 nM | > 10000 nM | > 10000 nM | > 10000 nM | 1000 to 4000 nM | > 10000 nM |  |  |
| CC(C)Oc1nc(Oc2ccc3c(c2)COB3O)ccc1C#N [D128, 6-(1-Hydroxy-1,3-dihydro-benzo[c][1,2]oxaborol-5-yloxy)-2-isopropoxy-nicotinonitrile] | < 1000 nM | < 1000 nM | < 1000 nM | < 1000 nM | < 1000 nM | < 1000 nM |  |  |
| CC(C)(C)OC(=O)COc1cc(C#N)ccc1Oc1ccc2c(c1)COB2O [D30, 5-[4-Cyano-2-(tert-butoxycarbonylmethoxy)phenoxy], 3-dihydro-1-hydroxy-2,1-benzoxaborole] | < 1000 nM | < 1000 nM | < 1000 nM | < 1000 nM | < 1000 nM | < 1000 nM |  |  |
| CCS(=O)(=O)c1ccc(Oc2ccc3c(c2)COB3O)cc1 [D105, 5-(4-(ethylsulfonyl)phenoxy)benzo[c][1,2]oxaborol-1 (3H)-ol] | 1000 to 4000 nM | 1000 to 4000 nM | 1000 to 4000 nM | 1000 to 4000 nM | 1000 to 4000 nM | 4000 to 10000 nM |  |  |
| CCOC(=O)c1ccc(Oc2ccc3c(c2)COB3O)cc1 [D72, 4-(1-Hydroxy-1,3-dihydro-benzo[c][1,2]oxaborol-5-yloxy)-benzoic acid ethyl ester] | 1000 to 4000 nM | 1000 to 4000 nM | 1000 to 4000 nM | > 10000 nM | < 1000 nM | 4000 to 10000 nM |  |  |
| CCOC(=O)COc1cc(Oc2ccc3c(c2)COB3O)ccc1C#N [D38, [2-Cyano-5-(1-hydroxy-1,3-dihydro-benzo[c][1,2]oxaborol-5-yloxy)-phenoxy]-acetic acid ethyl ester] | < 1000 nM | < 1000 nM | < 1000 nM | 1000 to 4000 nM | < 1000 nM | < 1000 nM |  |  |
